Results on 2 molecules are retold here after patent US20240271104A1, “COLONIZATION OF SURFACES WITH BIOLOGICAL CELLS” (Eberhard Karls Universität Tübingen Medizinische Fakultät, priority 2021, published 2024).

What all share (format): cell-based, human
In data set [1] the test system is endothelial layer on HFMs. As to the kind of experiment: Reactivity of the endothelial layer on HFMs to an inflammatory stimulus (qRT-PCR of adhesion molecules). The conditions noted are these: 50 ng/mL TNF-α, 4 hours, mRNA normalized to GAPDH. How it is done: Endothelialized HFMs were incubated for 4 hours without or with 50 ng/mL tumor necrosis factor α (TNF-α, Sigma-Aldrich) in EGM™-2 endothelial cell growth medium without hydrocortisone. After incubation, HFMs were washed twice with DPBS and total RNA was isolated. Expression of the activation markers, endothelial leukocyte adhesion molecule 1 (E-selectin), vascular cell adhesion molecule 1 (VCAM-1) and intercellular adhesion molecule 1 (ICAM-1), was detected by qRT-PCR.
After 40 cycles, melting was performed.
For orientation: In qPCR the cycle at which signal appears reflects the starting amount.

For data set [2], the system named is HUVECs. As to the kind of experiment: Metabolic labeling of HUVECs with azide groups, detection with DBCO-Sulfo-Cy3 by flow cytometry. The note with it: 50 μM Ac4ManNAz 48 h, then 5 μM DBCO-Sulfo-Cy3 1 h. How it is done:
To functionalize the cell surface of HUVECs with azide groups, 2×10^5 HUVECs per well of a 6-well plate were seeded and treated with or without 50 μM N-azidoacetylmannosamine-tetraacylated (Ac4ManNAz, Sigma Aldrich) in 2 ml medium for 48 h at 37° C. with 5% CO2. To detect the formed azido groups, the cells were washed with DPBS without Ca^2+/Mg^2+ and incubated with 5 μM DBCO-Sulfo-Cy3 (Jena Bioscience, Germany) in DPBS with Ca^2+/Mg^2+ for 1 h at 37° C. and 5% CO2. Cells were washed three times with 10 ml DPBS, detached with trypsin/EDTA (0.04%/0.03%) and centrifuged at 300×g for 5 min. The cell pellet was resuspended in 0.5 ml DPBS, and Cy3 labeling of 10,000 cells was analyzed by flow cytometry (FACS SCAN, BD, Heidelberg, Germany). In addition to the flow cytometric analyses, cells were stained for 30 minutes with ActinGreen™ 488 ReadyP-robes® reagent (Invitrogen) for the cytoskeleton and for 5 minutes with 0.2 μg/ml DAPI (Sigma Aldrich) to visualize the nuclei.
Background: Flow cytometry measures light scatter and fluorescence of single cells or particles in a stream.

The subject of data set [3] is HUVECs. As to the kind of experiment: PrestoBlue cell viability assay after metabolic labeling. The conditions noted are these: 50 μM Ac4ManNAz 48 h. On the procedure: The influence of metabolic labeling on the viability of HUVECs was investigated 48 hours after labeling with 50 µM Ac4ManNAz using the PrestoBlue assay (Invitrogen, Carlsbad, USA). For this purpose, 500 μL of 1× Presto Blue cell viability reagent was added to each well of a 6-well plate and incubated for 1.5 h at 37° C. The fluorescence intensity of 100 μL supernatant was measured in triplicate at an excitation wavelength of 530 nm and an emission wavelength of 600 nm using a multimode microplate reader (Mithras LB 940, Berthold Technologies, Bad Wildbad, Germany).

As for tumor necrosis factor α [TNF-α], in data set [1], the “E-selectin expression compared to non-stimulated endothelial layer” value came out at 199 fold, the “ICAM-1 expression compared to non-stimulated endothelial layer” value is given as 162 fold and the “VCAM-1 expression compared to non-stimulated endothelial layer” value came out at 328 fold.

As for `CC(=O)OC[C@H]1OC(OC(C)=O)[C@@H](NC(=O)CN=[N+]=[N-])[C@@H](OC(C)=O)[C@@H]1OC(C)=O` (some centres unmarked) [Ac4ManNAz, N-azidoacetylmannosamine-tetraacylated], in the data set on HUVECs [2], the “Cy3-positive cells (N3 groups on the cell surface)” value is “about 98%”. Also, in the data set with HUVECs [3], the “effect on viability of HUVECs” value was “no effect”.
